Measurements taken from patent publication US20130072404A1, “APPARATUS AND PROCESSES FOR GENERATING VARIABLE CONCENTRATION OF SOLUTES IN MICRODROPLETS” (UNIVERSITE DE STRASBOURG, priority 2009, published 2013).
“And” between values parts separate entries of the source, which are not always exact repeats. Equal values may be shown once. Read-outs that look alike come from different tables or passages of the source.

Assays:
Parameters in all cases: purchased Sigma-Aldrich Co
[1] = biological target: T1, β-galactosidase (Escherichia coli, UniProt P00722); test: Droplet microfluidic IC50 measurement, on-chip serial dilution network with scanning chamber (Example 1d), RBG substrate; type: biochemical; settings: 75 s droplet incubation, 4-parameter log-logistic fit, read-out: IC50 of PETG in the enzyme/substrate/inhibitor system
T1 sequence (P00722 2-1024 limits assumed): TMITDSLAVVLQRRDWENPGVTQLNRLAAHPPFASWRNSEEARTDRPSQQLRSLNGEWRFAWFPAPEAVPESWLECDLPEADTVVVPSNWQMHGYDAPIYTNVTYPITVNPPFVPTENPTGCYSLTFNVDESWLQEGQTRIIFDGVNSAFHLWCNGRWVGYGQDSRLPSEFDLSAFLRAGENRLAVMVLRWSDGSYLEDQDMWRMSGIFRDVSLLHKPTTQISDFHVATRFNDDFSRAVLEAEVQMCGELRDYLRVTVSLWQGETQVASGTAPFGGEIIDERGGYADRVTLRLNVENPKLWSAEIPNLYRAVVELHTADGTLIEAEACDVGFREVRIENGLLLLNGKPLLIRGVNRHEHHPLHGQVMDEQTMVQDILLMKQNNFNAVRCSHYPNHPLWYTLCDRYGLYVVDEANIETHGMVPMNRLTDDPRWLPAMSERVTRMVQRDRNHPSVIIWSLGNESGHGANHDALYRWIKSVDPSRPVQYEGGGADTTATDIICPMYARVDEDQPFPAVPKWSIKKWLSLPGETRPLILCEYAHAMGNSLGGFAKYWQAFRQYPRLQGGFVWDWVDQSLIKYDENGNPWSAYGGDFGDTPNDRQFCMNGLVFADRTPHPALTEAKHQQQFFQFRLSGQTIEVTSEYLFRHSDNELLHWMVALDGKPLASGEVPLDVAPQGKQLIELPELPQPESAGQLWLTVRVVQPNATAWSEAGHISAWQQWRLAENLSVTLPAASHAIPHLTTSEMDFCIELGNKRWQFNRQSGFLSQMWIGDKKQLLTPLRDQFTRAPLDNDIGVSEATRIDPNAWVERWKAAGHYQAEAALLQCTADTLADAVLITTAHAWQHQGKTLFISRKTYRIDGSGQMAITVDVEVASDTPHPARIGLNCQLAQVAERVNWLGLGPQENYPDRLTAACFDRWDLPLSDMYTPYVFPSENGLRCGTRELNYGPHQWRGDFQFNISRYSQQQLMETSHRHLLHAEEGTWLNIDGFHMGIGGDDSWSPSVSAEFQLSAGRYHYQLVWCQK
Protocol: In the examples, the model systems comprised an enzyme, a substrate, and an inhibitor for IC50 measurements and an enzyme and substrate alone for KM measurements. In all cases the enzyme was β-galactosidase (Sigma-Aldrich Co.), the substrate was resorufin β-D-galactopyranoside (RBG; Invitrogen Corporation), and the inhibitor was phenylethyl β-D-thiogalactopyranoside (PETG; Invitrogen Corporation).
An aqueous phase of 120 μM PETG (the inhibitor) and 100 μM sodium fluorescein in PBS were injected into the ‘compound’ input of the micro fluidic device (FIG. 4) at a flow rate of 111 μl/hr. A second aqueous phase, PBS, was injected into the ‘diluent’ input at a flow rate of 389 μl/hr. […]
A series of microdroplets were created containing PETG (and sodium fluorescein) at different concentrations: from zero to 30 μM (25 μM sodium fluorescein) and then from 30 μM to zero. […] The amounts of fluorescent resorufin (liberated by β-galactosidase activity) and sodium fluorescein were measured for each droplet by monitoring fluorescence intensity in the 590-625 and 500-520 nm channels, respectively.
About 10^5 microdroplets were plotted in an XY graph with initial reaction rate (inferred from resorufin fluorescence after 75 seconds of droplet incubation) against inhibitor concentration (assumed to be proportional to sodium fluorescein fluorescence). […]

[2] = biological target: T1, β-galactosidase; test: Standard microplate assay (Example 1 comparison values); type: biochemical; settings: read-out: IC50 of PETG measured in a standard microplate assay
[3] = biological target: T1, β-galactosidase; settings: Angenendt et al., 2004; read-out: IC50 literature value; cited from earlier work
[4] = biological target: T1, β-galactosidase; test: Microplate dose-response assay, β-galactosidase (Example 2); type: biochemical; settings: 8-point microplate assay, n=10; read-out: IC50 obtained in microplate
Protocol: For β-galactosidase, a solution of the inhibitor PETG was diluted to 200 μM in PBS and then further diluted in 3-fold serial dilution steps seven times (200 μM down to […]). 10 μl aliquots of each dilution were pipetted into the wells of a black, opaque 384-well plate (Corning, Inc., New York, USA). A stock of the substrate FDG was diluted to 240 μM in PBS and 10 μl aliquots were added to the wells. The reactions were initiated by adding 20 μl of 10 U/ml β-galactosidase, in PBS containing 2 g/l BSA, to each well. A SpectraMax M5 microplate reader (Molecular Devices, Inc., California, USA) was used to monitor the reactions at 25° C. with an excitation wavelength of 490 nm, an emission wavelength of 514 nm (automatic cut-off), and a 15 second period between measurements. The initial rate of each reaction was determined and the percentage inhibition of β-galactosidase activity was calculated by scaling this initial rate between a blank (no enzyme, equivalent to 100% inhibition) and a positive control (no inhibitor, equivalent to 0% inhibition) in the same manner as Eq. 1 (see above). When required, the 4-parameter Hill function was fitted to a plot of percentage inhibition against logged inhibitor concentration to determine the IC50 of PETG.

SMILES: OC[C@H]1O[C@@H](SCCc2ccccc2)[C@H](O)[C@@H](O)[C@H]1O [PETG, phenylethyl β-D-thiogalactopyranoside]
- IC50 [1]: 2210 nM and 3040 nM
- IC50 [2]: 1430 nM
- IC50 [3]: 3100 nM
- IC50 [4]: 2720 nM
